# Target: T1, PD-1/PD-L1 protein/protein interaction (recombinant human PD-L1 protein (19-238), recombinant human PD-1 protein (25-167)) (Homo sapiens, UniProt Q9NZQ7)
# T1 construct: Recombinant human PD-L1 protein (19-238) with a His-tag at the C-terminus; purchased AcroBiosystems PD1-H5229 (PD-L1-His); PD1-H5257 (PD-1-Fc)
# Experiment: PD-1/PD-L1 Homogeneous Time-Resolved Fluorescence (HTRF) Binding Assay
# Details: 25° C., PBS buffer (pH 7.4), 40 minutes preincubation with inhibitors
# Procedure: The assays were conducted in a standard black 384-well polystyrene plate with a final volume of 20 μL. Inhibitors were first serially diluted in DMSO and then added to the plate wells before the addition of other reaction components. The final concentration of DMSO in the assay was 1%. The assays were carried out at 25° C. in the PBS buffer (pH 7.4) with 0.05% Tween-20 and 0.1% BSA. Recombinant human PD-L1 protein (19-238) with a His-tag at the C-terminus was purchased from AcroBiosystems (PD1-H5229). Recombinant human PD-1 protein (25-167) with Fc tag at the C-terminus was also purchased from AcroBiosystems (PD1-H5257). PD-L1 and PD-1 proteins were diluted in the assay buffer and 10 μL was added to the plate well. Plates were centrifuged and proteins were preincubated with inhibitors for 40 minutes. The incubation was followed by the addition of 10 μL of HTRF detection buffer supplemented with Europium cryptate-labeled anti-human IgG (PerkinElmer-AD0212) specific for Fc and anti-His antibody conjugated to SureLight®-Allophycocyanin (APC, PerkinElmer-AD0059H). After centrifugation, the plate was incubated at 25° C. for 60 min. before reading on a PHERAstar FS plate reader (665 nm/620 nm ratio). Final concentrations in the assay were […], 10 nM PD-L1, 1 nM europium anti-human IgG and 20 nM anti-His-Allophycocyanin. IC50 determination was performed by fitting the curve of percent control activity versus the log of the inhibitor concentration using the GraphPad Prism 5.0 software.
# T1 sequence (Q9NZQ7 19-238): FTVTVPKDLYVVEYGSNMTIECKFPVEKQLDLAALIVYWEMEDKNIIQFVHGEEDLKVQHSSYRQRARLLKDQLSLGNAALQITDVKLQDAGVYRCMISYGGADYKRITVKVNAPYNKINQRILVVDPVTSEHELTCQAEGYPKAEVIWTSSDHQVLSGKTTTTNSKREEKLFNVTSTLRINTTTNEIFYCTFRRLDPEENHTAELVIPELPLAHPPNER
row,SMILES,IC50 [nM]
1,"Cc1c(Nc2nccc3cc(CN4CC[C@](C)(O)C4)cnc23)cccc1-c1cccc(NC(=O)c2nc3c(n2C)CCN(C2CCC(C(=O)O)CC2)C3)c1Cl (stereo partly drawn) [Example 58, (S)-4-(2-(2-chloro-3′-(3-((3-hydroxy-3-methylpyrrolidin-1-yl)methyl)-1,7-naphthyridin-8-ylamino)-2′-methylbiphenyl-3-ylcarbamoyl)-1-methyl-6,7-dihydro-1H-imidazo[4,5-c]pyridin-5(4H)-yl)cyclohexanecarboxylic acid]",≤ 10
2,"Cc1c(Nc2nccc3cc(CN4CC[C@@H](C(=O)O)C4)cnc23)cccc1-c1cccc(NC(=O)c2ccc(CN3CC[C@@H](O)C3)cn2)c1Cl [Example 7, (R)-1-((8-((2′-chloro-3′-(5-(((R)-3-hydroxypyrrolidin-1-yl)methyl)picolinamido)-2-methyl-[1,1′-biphenyl]-3-yl)amino)-1,7-naphthyridin-3-yl)methyl)pyrrolidine-3-carboxylic acid]",≤ 10
3,"Cc1c(NC(=O)c2nc3c(n2C)CCN(C2CCC(C)(C(=O)O)CC2)C3)cccc1-c1cccc(Nc2nccc3cc(CN4CC[C@@H](O)C4)cnc23)c1C (single isomer, unassigned) [Example 62-peak1]",≤ 10
4,"Cc1c(Nc2nccc3cc(CN4CC[C@@](C)(O)C4)cnc23)cccc1-c1cccc(NC(=O)c2nc3c(n2C)CCN(C2CCC(C(=O)O)CC2)C3)c1Cl (stereo partly drawn) [Example 57, (R)-4-(2-(2-chloro-3′-(3-((3-hydroxy-3-methylpyrrolidin-1-yl)methyl)-1,7-naphthyridin-8-ylamino)-2′-methylbiphenyl-3-ylcarbamoyl)-1-methyl-6,7-dihydro-1H-imidazo[4,5-c]pyridin-5(4H)-yl)cyclohexanecarboxylic acid]",≤ 10
5,"Cc1c(-c2nc3c(s2)CNCC3)cccc1-c1cccc(Nc2nccc3cc(CNCCO)cnc23)c1Cl [Example 1, 2-(((8-((2-chloro-2′-methyl-3′-(4,5,6,7-tetrahydrothiazolo[5,4-c]pyridin-2-yl)-[1,1′-biphenyl]-3-yl)amino)-1,7-naphthyridin-3-yl)methyl)amino)ethan-1-ol]",≤ 10
6,"Cc1c(Nc2nccc3cc(CN4CC[C@@H](O)C4)cnc23)cccc1-c1cccc(-c2nc3c(o2)CN(C(=O)CN2CC[C@@H](C(=O)O)C2)C3)c1C [Example 41, (R)-1-(2-(2-(3′-((3-(((R)-3-hydroxypyrrolidin-1-yl)methyl)-1,7-naphthyridin-8-yl)amino)-2,2′-dimethyl-[1,1′-biphenyl]-3-yl)-4,6-dihydro-5H-pyrrolo[3,4-d]oxazol-5-yl)-2-oxoethyl)pyrrolidine-3-carboxylic acid]",≤ 10
7,"Cc1c(Nc2nccc3cc(CN4CC[C@@H](O)C4)cnc23)cccc1-c1cccc(Nc2nccc3cc(CN4CC[C@H](C(=O)O)C4)cnc23)c1C [Example 10, (S)-1-((8-((3′-((3-(((R)-3-hydroxypyrrolidin-1-yl)methyl)-1,7-naphthyridin-8-yl)amino)-2,2′-dimethyl-[1,1′-biphenyl]-3-yl)amino)-1,7-naphthyridin-3-yl)methyl)pyrrolidine-3-carboxylic acid]",≤ 10
8,"Cc1c(Nc2nccc3cc(CNCCO)cnc23)cccc1-c1cccc(Nc2nccc3cc(CN4CC[C@@H](O)C4)cnc23)c1C [Example 21, (R)-1-((8-(3′-(3-((2-hydroxyethylamino)methyl)-1,7-naphthyridin-8-ylamino)-2,2′-dimethylbiphenyl-3-ylamino)-1,7-naphthyridin-3-yl)methyl)pyrrolidin-3-ol]",≤ 10
9,"Cc1c(Nc2nccc3cc(CN4CC[C@@](C)(C(=O)O)C4)cnc23)cccc1-c1cccc(NC(=O)c2nc3c(n2C)CCN(C)C3)c1Cl [Example 33, (R)-1-((8-(2′-chloro-3′-(1,5-dimethyl-4,5,6,7-tetrahydro-1H-imidazo[4,5-c]pyridine-2-carboxamido)-2-methylbiphenyl-3-ylamino)-1,7-naphthyridin-3-yl)methyl)-3-methylpyrrolidine-3-carboxylic acid]",≤ 10

# The next lines start with the values.
row,IC50 [nM],SMILES
1,≤ 10,"OCCNCc1cnc2c(Nc3cccc(-c4cccc(Nc5nccc6cc(CN7CC[C@@H](O)C7)cnc56)c4Cl)c3Cl)nccc2c1 [Example 77, (R)-1-((8-((2,2′-dichloro-3′-((3-(((2-hydroxyethyl)amino)methyl)-1,7-naphthyridin-8-yl)amino)-[1,1′-biphenyl]-3-yl)amino)-1,7-naphthyridin-3-yl)methyl)pyrrolidin-3-ol]"
2,≤ 10,"OCCNCc1cnc2c(Nc3cccc(-c4cccc(Nc5nccc6cc(CN7CC[C@@H](O)C7)cnc56)c4Cl)c3Cl)nccn12 [Example 72, (R)-1-((8-(2,2′-dichloro-3′-(3-((2-hydroxyethylamino)methyl)imidazo[1,2-a]pyrazin-8-ylamino)biphenyl-3-ylamino)-1,7-naphthyridin-3-yl)methyl)pyrrolidin-3-ol]"
3,≤ 10,"Cc1c(Nc2nccc3cc(CN4CC[C@@](C)(C(=O)O)C4)cnc23)cccc1-c1cccc(-c2nc3c(s2)CN(C(=O)CN(C)C)C3)c1C [Example 87, (R)-1-((8-((3′-(5-(dimethylglycyl)-5,6-dihydro-4H-pyrrolo[3,4-d]thiazol-2-yl)-2,2′-dimethyl-[1,1′-biphenyl]-3-yl)amino)-1,7-naphthyridin-3-yl)methyl)-3-methylpyrrolidine-3-carboxylic acid]"
4,≤ 10,"CCN(C)CC(=O)N1Cc2nc(-c3cccc(-c4cccc(Nc5nccc6cc(CN7CC[C@@H](C(=O)O)C7)cnc56)c4Cl)c3C)sc2C1 [Example 90, (R)-1-((8-((2-chloro-3′-(5-(N-ethyl-N-methylglycyl)-5,6-dihydro-4H-pyrrolo[3,4-d]thiazol-2-yl)-2′-methyl-[1,1′-biphenyl]-3-yl)amino)-1,7-naphthyridin-3-yl)methyl)pyrrolidine-3-carboxylic acid]"
5,≤ 10,"Cc1c(NC(=O)c2nc3c(n2C)CCN(CC[C@H]2CC[C@H](C(=O)O)CC2)C3)cccc1-c1cccc(Nc2nccc3cc(CN4CC[C@@H](O)C4)cnc23)c1C [Example 63, trans-4-(2-(2-(3′-(3-(((R)-3-hydroxypyrrolidin-1-yl)methyl)-1,7-naphthyridin-8-ylamino)-2,2′-dimethylbiphenyl-3-ylcarbamoyl)-1-methyl-6,7-dihydro-1H-imidazo[4,5-c]pyridin-5(4H)-yl)ethyl)cyclohexanecarboxylic acid]"
6,≤ 10,"Cc1c(NC(=O)c2nc3c(n2C)CCN(C2CCC(C(=O)O)CC2)C3)cccc1-c1cccc(Nc2nccc3cc(CN4CC[C@@H](O)C4)cnc23)c1C (single isomer, unassigned) [Example 64-peak2]"
7,≤ 10,"Cc1c(Nc2nccc3cc(CN4CC[C@H](O)C4)cnc23)cccc1-c1cccc(Nc2nccc3cc(CN4CC[C@@H](O)C4)cnc23)c1Cl [Example 74, (S)-1-((8-((2′-chloro-3′-((3-(((R)-3-hydroxypyrrolidin-1-yl)methyl)-1,7-naphthyridin-8-yl)amino)-2-methyl-[1,1′-biphenyl]-3-yl)amino)-1,7-naphthyridin-3-yl)methyl)pyrrolidin-3-ol]"
8,≤ 10,"Cc1c(Nc2ncnc3cc(CN4CC[C@@H](O)C4)cnc23)cccc1-c1cccc(NC(=O)c2nc3c(n2C)CCN(C[C@H]2CC[C@H](C(=O)O)CC2)C3)c1Cl [Example 69, trans 4-((2-(2-chloro-3′-(7-(((R)-3-hydroxypyrrolidin-1-yl)methyl)pyrido[3,2-d]pyrimidin-4-ylamino)-2′-methylbiphenyl-3-ylcarbamoyl)-1-methyl-6,7-dihydro-1H-imidazo[4,5-c]pyridin-5(4H)-yl)methyl)cyclohexanecarboxylic acid]"
9,≤ 10,"Cc1c(Nc2nccc3cc(CN4CC[C@@H](O)C4)cnc23)cccc1-c1cccc(Nc2nccc3cc(CN4CC[C@@H](C(=O)O)C4)cnc23)c1Cl [Example 79, (R)-1-((8-((2-chloro-3′-((3-(((R)-3-hydroxypyrrolidin-1-yl)methyl)-1,7-naphthyridin-8-yl)amino)-2′-methyl-[1,1′-biphenyl]-3-yl)amino)-1,7-naphthyridin-3-yl)methyl)pyrrolidine-3-carboxylic acid]"
10,≤ 10,"Cc1c(Nc2nccc3cc(CN4CCCC4)cnc23)cccc1-c1cccc(Nc2nccc3cc(CN4CC[C@@H](O)C4)cnc23)c1C [Example 73, (R)-1-((8-((2,2′-dimethyl-3′-((3-(pyrrolidin-1-ylmethyl)-1,7-naphthyridin-8-yl)amino)-[1,1′-biphenyl]-3-yl)amino)-1,7-naphthyridin-3-yl)methyl)pyrrolidin-3-ol]"
11,≤ 10,"Cc1c(Nc2nccc3cc(CN4CC(C(=O)O)C4)cnc23)cccc1-c1cccc(-c2nc3c(s2)CN(C(=O)CN(C)C)C3)c1C [Example 88, 1-((8-((3′-(5-(dimethylglycyl)-5,6-dihydro-4H-pyrrolo[3,4-d]thiazol-2-yl)-2,2′-dimethyl-[1,1′-biphenyl]-3-yl)amino)-1,7-naphthyridin-3-yl)methyl)azetidine-3-carboxylic acid]"

# From US12466822B2, “Heterocyclic compounds as immunomodulators” (Incyte Corporation, priority 2016, dated 2025)
